Data reported in patent publication US11666580B2, “Mechanism of resistance to bet bromodomain inhibitors” (Dana-Farber Cancer Institute, Inc., priority 2015, dated 2023).

Experiments:
SUM159 cells [1] = experiment: Cell cycle analysis of SUM159 cells synchronized with nocodazole in G2/M; type: cell-based, human
Protocol: Cell cycle analysis was performed 72 hr after JQ1 treatment or BRD4 downregulation with doxycycline using propidium iodide (PI) staining. Cells were resuspended in 1 ml of growth medium supplemented with 2 μg/ml PI (Life Technologies) as final concentration. After 60 min at 37° C. in the dark, analysis was performed on a FACS AriaII cytometer (BD Biosciences). The cell cycle was plotted as histogram after excluding doublets. Cell synchronization Procedure. SUM159 cells were treated with nocodazole (200 ng/ml) for 12 h and then cells were tapped to detach from the plates. After washing twice with PBS, cells were replated with or without JQ1 in collagen coated plates. Cells were collected at 0, 3, 6, 12 h time point for FACS and immunoblot analysis.

[2] = system: pSTAT3, pJAK2 and MYC in SUM159 cells; experiment: Immunoblot kinetic study of signaling factors after JQ1; type: cell-based, human
From the text: Immunoblotting and immunoprecipitation experiments were repeated 2-3 times.

SUM159 and SUM149 cells = experiment: RNA-seq following JQ1 treatment; type: cell-based, human; settings: different time points following JQ1 500 nM
Protocol: Quantifying changes in gene expression of SE proximal genes. Genes within 50 kb of SE in SUM159 or SUM149 were identified and filtered for expression status (>1 FPKM expression in any sample), and filtered to remove non poly-adenylated transcripts (e.g. microRNAs). For SUM159, log2 fold changes in gene expression at SE associated genes or all expressed genes was compared at 3, 12, and 24 hours post JQ1 treatment (FIG. 2F). For SUM149, comparisons were made at 12 hours post JQ1 treatment (Extended Data FIG. 3B). The statistical significance of differences between distributions of changes was also assessed using a Welch's two-tailed t test.

SUM149 cells = experiment: Cell growth assay (viable cell numbers); type: cell-based, human; settings: low (0.5 μM) and high (2.0 μM) doses, 6 days
Protocol: (§1) Cell viability and growth assays (FIGS. 1A-1B, FIGS. 3A-3E, 3G, FIGS. 5D-5F, FIGS. 6C, 6E, 6I, FIG. 7A, FIG. 10D, FIGS. 14A-14C), cycle, apoptosis, and MDR assays were performed in triplicates and repeated 2-3 times. For cell proliferation assays, cells were plated at 500 cells per well in 96-well plates and treated the next day with inhibitors, DMSO or doxycycline (500 ng). Cells were cultured at 37° C. with 5% CO2 in the media described-above, and cell viability was measured using CellTiter-Glo three days after treatments. For cell growth assays, cells were plated at 5000 (SUM159) or 20000 (SUM149) cells per well in 6-well plates and treated the next day with inhibitors. Cells were counted every three days by cell counter. Cellular apoptosis was analyzed with an APC AnnexinV/7ADD Apoptosis Detection kit (BD Pharmingen). AnnexinV/7AAD assessments and cell cycle graphics were generated using FlowJo software V7.6.1 for Windows (Tree Star). Senescence Beta-gal staining was performed using Senescence β-Galactosidase staining kit from Cell signaling. Briefly, after JQ1 treatment (500 nM) for 72 h, SUM159 and MDA-MB-231 cells were fixed by Fixative Solution for 15 min, followed by β-Galactosidase solution incubation overnight at 37° C. The staining was checked under microscope for the development of blue color. […] Briefly, SUM159 and SUM159R cells were treated with JQ1 or DMSO for 30 min in SUM medium. Verapamil was used as a positive control at 1:1000 dilution.

SUM149R cells = experiment: Cell growth assay (viable cell numbers); type: cell-based, human; settings: high concentrations (up to 20 μM) of JQ1
Protocol: as §1

SUM159 cells [3] = experiment: Cell growth assay (viable cell numbers); type: cell-based, human; settings: low (0.5 μM) and high (2.0 μM) doses, 6 days
Protocol: as §1

SUM159R cells = experiment: Cell growth assay (viable cell numbers); type: cell-based, human; settings: high concentrations (up to 20 μM) of JQ1
Protocol: as §1

[4] = system: xenografts derived from SUM159R cells; experiment: Xenograft assay, SUM159R (BBI-resistant SUM159); type: in vivo, mice; settings: JQ1 for 30 days
Protocol: For xenograft assays 5-6-weeks old female CrTac:NCr-Foxn1^nu and NOD.Cg-Prkdc^scid Il2rg^tm1Sug/JicTac mice were purchased from Taconic. Tumors were induced by bilateral orthotopic mammary fat pad injection of 1×10^6 cells in 50% Matrigel (BD Biosciences) in DMEM/F12 or Medium 171 (except for IDC50-X cells, which were injected with 3% FBS and 4 mg/ml collagen gel in Medium 171). Animal experiments were conducted following protocol 11-023 approved by the Dana-Farber Cancer Institute Animal Care and Use Committee.

[5] = molecular target: BRD4-MED1 association in SUM159 cells (Homo sapiens, UniProt O60885); settings: sensitive cells
Protocol: Cells were lysed five days after transfection with siRNAs in RIPA buffer. Proteins were resolved in SDS-polyacrylamide gels (4%-12%) and transferred to PVDF membranes by using a Tris-glycine buffer system. Membranes were blocked with 5% milk powder in 0.1% Tween20 in PBS (PBS-T) for 1 hr at room temperature followed by incubation with primary antibodies at 1:1000 dilution in 2.5% milk PBS-T. For immunoprecipitation, nuclear extracts were prepared as follow: 10×10^6 cells were resuspended in 5 ml Buffer A: 10 mM Tris pH 7.9, 1.5 mM MgCl2, 10 mM KCl, 0.05% NP-40, 1 mM DTT, and protease and phosphatase inhibitors. Cells were incubated on ice for 15 min and gently vortexed every 5 min. After centrifugation at 2,000 g for 5 min, pellets were suspended in 0.3 ml buffer B (20 mM Tris pH 7.9, 25% glycerol, 0.42 M NaCl, 1.5 mM MgCl2, 1 mM KCl, 0.5% NP40, 0.2 mM EDTA, 1 mM DTT, and protease and phosphatase inhibitors) and incubated for 5 min on ice. After centrifugation of the lysates at 14 g for 10 min at 4° C., supernatant was diluted with 0.6 ml buffer A, and added NP-40 to final 0.5% and treated with DNase I. The samples were then incubated at 4° C. overnight with BRD4 or Flag antibodies at 1:100 dilution and immunoprecipitates were collected on Dynabeads Protein G for 2 hr. […]

## Cc1sc2c(c1C)C(c1ccc(Cl)cc1)=N[C@@H](CC(=O)OC(C)(C)C)c1nnc(C)n1-2 [JQ1]
SUM159 cells [1]; JQ1 (500 nM) added 3 hours after release
  Cell cycle after release from G2/M: less pronounced effects
SUM159 cells [1]; JQ1 (500 nM) administered 1 hour before release
  Cell cycle after release from G2/M: arrested in early G1 with high cyclin D1 levels
[2]; SUM159, after 12 hours
  pSTAT3 and pJAK2 levels: decrease in pSTAT3 and pJAK2
[2]; SUM159, at 24 hours
  MYC level: dose-responsive decrease in MYC
SUM159 and SUM149 cells
  Expression of super-enhancer associated genes versus all active genes: significantly more likely to be down-regulated
SUM149 cells
  Proliferation: severely impaired
SUM149R cells
  Proliferation: continue to proliferate linearly over time
SUM159 cells [3]
  Proliferation: severely impaired
SUM159R cells
  Proliferation: continue to proliferate linearly over time
[4]
  Tumor response to JQ1 treatment: not responsive
[5]
  Association of BRD4 with MED1: efficiently displaced BRD4 from MED1
